Measured values as given in patent US6187802A, “Substituted 4-arylmethylene-2-imino-2,3-dihydrothiazoles and derivatives and their pharmaceutical use” (Knoll Aktiengesellschaft, priority 1997, dated 2001).
Counter-ions that a name gives are not always drawn.

Tests used:
[1] = molecular target: T1, dopamine (DA) reuptake sites (Rattus norvegicus, UniProt P23977); assay: displacement of [3H]GBR 12935 from dopamine reuptake sites, striatal membranes; type: binding; conditions: 10^-6 M test compound, [3H]GBR 12935 1 nM, one test only, read-out: DA uptake (% displacement of specific binding of tritiated ligand)
T1 construct: Striatal tissue from the brains of male Charles River rats weighing 150-250 g; from tissue; host or cells: rat brain striatum (crude synaptosomes in A1, washed membranes in A4)
T1 sequence (P23977 whole entry): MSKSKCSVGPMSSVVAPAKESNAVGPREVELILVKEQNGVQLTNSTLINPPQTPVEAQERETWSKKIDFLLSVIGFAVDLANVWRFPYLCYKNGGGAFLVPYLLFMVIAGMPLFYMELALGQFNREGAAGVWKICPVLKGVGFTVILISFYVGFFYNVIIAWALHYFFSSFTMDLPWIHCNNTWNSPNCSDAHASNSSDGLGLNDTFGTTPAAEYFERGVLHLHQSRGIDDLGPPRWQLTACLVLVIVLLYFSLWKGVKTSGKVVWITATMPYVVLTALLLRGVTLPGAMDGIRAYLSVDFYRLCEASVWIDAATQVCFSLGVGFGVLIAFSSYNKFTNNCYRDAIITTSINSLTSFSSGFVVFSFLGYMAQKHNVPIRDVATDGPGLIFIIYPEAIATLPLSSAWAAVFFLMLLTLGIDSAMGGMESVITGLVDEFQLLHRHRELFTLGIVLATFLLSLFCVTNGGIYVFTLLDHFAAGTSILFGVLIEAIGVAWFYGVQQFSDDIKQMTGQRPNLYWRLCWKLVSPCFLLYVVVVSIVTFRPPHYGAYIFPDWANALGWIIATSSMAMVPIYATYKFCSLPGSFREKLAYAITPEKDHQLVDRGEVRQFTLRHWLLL
Method in brief: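 Rat striatal membranes (male rats, 150-250 g) incubated 90 min at 4 °C with 1 nM [3H]GBR 12935 in 50 mM Tris-HCl pH 7.4, 200 mM NaCl, 5 mM KCl; non-specific binding with 1 μM mazindol. Filtration, scintillation counting; value is % displacement of specific binding at 10^-6 M, single test; IA means <50%.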

[2] = molecular target: T2, 5-hydroxytryptamine (5-HT) reuptake sites (Rattus norvegicus, UniProt P31652); assay: displacement of [3H]paroxetine from 5-HT reuptake sites, frontal cortical membranes; type: binding; conditions: 10^-6 M test compound, [3H]paroxetine 30 pM, one test only, read-out: 5-HT uptake (% displacement of specific binding of tritiated ligand)
T2 construct: Frontal cortical tissue from the brains of male Sprague-Dawley rats; from tissue; host or cells: rat brain frontal cortex (crude synaptosomes in A2, washed membranes in A5)
T2 sequence (P31652 whole entry): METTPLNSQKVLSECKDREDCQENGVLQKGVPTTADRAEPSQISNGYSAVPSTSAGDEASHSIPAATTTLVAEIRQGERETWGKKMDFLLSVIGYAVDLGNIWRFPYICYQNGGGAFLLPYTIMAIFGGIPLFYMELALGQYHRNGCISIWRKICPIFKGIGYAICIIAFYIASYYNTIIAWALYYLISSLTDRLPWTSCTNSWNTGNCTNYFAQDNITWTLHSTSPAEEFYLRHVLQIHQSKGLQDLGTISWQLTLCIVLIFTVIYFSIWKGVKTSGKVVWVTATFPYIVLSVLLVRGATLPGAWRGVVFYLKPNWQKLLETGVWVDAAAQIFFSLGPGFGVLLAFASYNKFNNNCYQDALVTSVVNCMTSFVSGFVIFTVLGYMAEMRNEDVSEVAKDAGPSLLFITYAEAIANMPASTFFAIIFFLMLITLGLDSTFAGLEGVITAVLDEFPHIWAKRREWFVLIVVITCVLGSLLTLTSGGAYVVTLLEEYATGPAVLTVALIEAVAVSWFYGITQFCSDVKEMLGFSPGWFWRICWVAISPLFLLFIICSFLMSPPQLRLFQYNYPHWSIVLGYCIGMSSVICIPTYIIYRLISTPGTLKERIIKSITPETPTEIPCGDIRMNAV
Method in brief: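 Rat frontal cortex membranes (male, 150-250 g; 2 mg wet tissue/tube) in 50 mM Tris-HCl pH 7.5 with 120 mM NaCl and 5 mM KCl, incubated 2 h at 22 °C with 30 pM [3H]paroxetine and compound at 10^-6 M. Citalopram 1 μM defined non-specific binding; values are % displacement of specific binding from a single test, filtration and scintillation counting.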

[3] = molecular target: T3, noradrenaline (NA) reuptake sites (Rattus norvegicus, UniProt Q63380); assay: displacement of [3H]nisoxetine from noradrenaline reuptake sites, frontal cortical membranes; conditions: 10^-6 M test compound, [3H]nisoxetine 0.6 nM, one test only, read-out: NA uptake (% displacement of specific binding of tritiated ligand)
T3 construct: Frontal cortical tissue from the brains of male Sprague-Dawley rats; from tissue; host or cells: rat brain frontal cortex (crude synaptosomes in A3, washed membranes in A6)
T3 sequence (Q63380 1-617): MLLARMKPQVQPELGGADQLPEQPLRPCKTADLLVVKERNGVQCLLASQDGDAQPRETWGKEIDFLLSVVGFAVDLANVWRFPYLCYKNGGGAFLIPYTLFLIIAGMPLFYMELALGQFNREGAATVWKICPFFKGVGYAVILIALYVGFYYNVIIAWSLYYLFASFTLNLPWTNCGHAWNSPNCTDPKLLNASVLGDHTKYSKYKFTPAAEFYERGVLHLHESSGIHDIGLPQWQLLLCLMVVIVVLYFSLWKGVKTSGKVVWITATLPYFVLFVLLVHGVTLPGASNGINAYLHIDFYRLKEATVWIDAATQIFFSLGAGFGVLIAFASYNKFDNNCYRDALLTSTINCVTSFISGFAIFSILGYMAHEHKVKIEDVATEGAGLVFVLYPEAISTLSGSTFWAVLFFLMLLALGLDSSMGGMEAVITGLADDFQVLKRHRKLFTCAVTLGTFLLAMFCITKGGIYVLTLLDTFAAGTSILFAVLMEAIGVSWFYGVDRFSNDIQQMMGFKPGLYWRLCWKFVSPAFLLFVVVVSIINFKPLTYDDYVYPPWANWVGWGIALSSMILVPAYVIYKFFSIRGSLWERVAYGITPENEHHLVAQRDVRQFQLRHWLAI
Method in brief: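 Washed male rat frontal cortex membranes in 50 mM Tris pH 7.4, 300 mM NaCl, 5 mM KCl, incubated 4 h at 4 °C with 0.6 nM [3H]nisoxetine and test compound at 10^-6 M; mazindol (1 μM) defined non-specific binding. Filtration, scintillation counting; % displacement of specific binding, single test.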

Structure (SMILES)	inhibition at 1 µM [1] [%]	inhibition at 1 µM [2] [%]	inhibition at 1 µM [3] [%]
c1ccc(N=c2scc(C3(c4ccc5ccccc5c4)CCC3)n2-c2ccccc2)cc1 [Example 49, 4-[1-(2-Naphthyl)cyclobutyl]-3-phenyl-2-phenylimino-2,3-dihydrothiazole hydrobromide]	69	56	< 50
CCCCN=c1scc(C2(c3ccc(Cl)c(Cl)c3)CCC2)n1CCCC [Example 18, 3-Butyl-2-butylimino-4-[1-(3,4-dichlorophenyl)cyclobutyl]-2,3-dihydrothiazole hydrobromide]	106	95	63
CN=c1scc(C2(c3ccc4ccccc4c3)CCC2)n1C [Example 36, 3-Methyl-2-methylimino-4-[1-(2-naphthyl)cyclobutyl]-2,3-dihydrothiazole hydrobromide]	108	101	101
Clc1ccc(C2(C3=CSC4=NCCN34)CCCC2)cc1 [Example 71, 3-[1-(4-Chlorophenyl)cyclopentyl]-5,6-dihydroimidazo[2,1-b]thiazole hydrobromide]	96	< 50	76
COc1ccc(CCN=c2scc(C3(c4ccc(Cl)c(Cl)c4)CCC3)n2CCc2ccc(OC)c(OC)c2)cc1OC [Example 33, 4-[1-(3,4-Dichlorophenyi)cyclobutyl]-3-(3,4-dimethoxyphenethyl)-2-(3,4-dimethoxyphenethylimino)-2,3-dihydnothiazole hydrobromide]	99	63	< 50
Clc1ccc(C2(C3=C(Cc4ccccc4)SC4=NCCN43)CCC2)cc1 [Example 7, 2-benzyl-3-[1-(4-chlorophenyl)cyclobutyl]-5,6-dihydroimidazo[2,1-b]-thiazole hydrobromide]	69	85	< 50
CC(C)N=c1scc(C2(c3ccc4ccccc4c3)CCC2)n1C(C)C [Example 39, 3-Isopropyl-2-isopropylimino-4-[1-(2-naphthyl)cyclobutyl]-2,3-dihydrothiazole hydrobromide]	108	100	58
Clc1ccc(C2(c3csc(=Nc4ccccc4)n3-c3ccccc3)CCC2)cc1Cl [Example 27, 4-[1-(3,4-Dichlorophenyl)cyclobutyl]-3-phenyl-2-phenylimino-2,3-dihydrothiazole hydrobromide]	84	< 50	< 50
COc1ccc(CCN=c2scc(C3(c4ccc(Cl)cc4)CCCC3)n2CCc2ccc(OC)c(OC)c2)cc1OC [Example 67, 4-[1-(4-Chlorophenyl)cyclopentyl]-3-(3,4-dimethoxyphenethyl)-2-(3,4-dimethoxyphenethylimino)-2,3-dihydrothiazole hydrobromide]	88	< 50	< 50
CCN=c1scc(C2(c3ccc4ccccc4c3)CCC2)n1CC [Example 37, 3-Ethyl-2-ethylimino-4-[1-(2-naphthyl)cyclobutyl]-2,3-dihydrothiazole hydrobromide]	110	101	102
CCOc1ccc(N=c2scc(C3(c4ccc5ccccc5c4)CCC3)n2-c2ccc(OCC)cc2)cc1 [Example 54, 3-(4-Ethoxyphenyl)-2-(4-ethoxyphenylimino)-4-[1-(2-naphthyl)cyclobutyl]-2,3-dihydrothiazole hydrobromide]	69	< 50	< 50
CCCCN=c1scc(C2(c3ccc(Br)cc3)CCC2)n1CCCC [Example 57, 4-[1-(4-Bromophenyl)cyclobutyl]-3-butyl-2-butylimino-2,3-dihydrothiazole hydrobromide]	94	< 50	< 50
CCCCN=c1scc(C(C)(C)c2ccc(Cl)c(Cl)c2)n1CCCC [Example 63, 3-Butyl-2-butylimino-4-[1-(3,4-dichlorophenyl)-1-methylethyl]-2,3-dihydrothiazole hydrobromide]	107	52	< 50
c1ccc2cc(C3(c4csc(=NC5CCCC5)n4C4CCCC4)CCC3)ccc2c1 [Example 53, 3-Cyclopentyl-2-cyclopentylimino-4-[1-(2-naphthyl)cyclobutyl]-2,3-dihydrothiazole hydrobromide]	80	71	< 50
Clc1ccc(C2=C(C3(c4ccc(Cl)c(Cl)c4)CCC3)N3CCN=C3S2)cc1 [Example 10, 2-(4-chlorophenyl)-3-[1-(3,4-dichlorophenyl)cyclobutyl]-5,6-dihydroimidazo[2,1-b]thiazole hydrobromide]	85	57	< 50
COc1ccc(CCN=c2scc(C(C)(C)c3ccc(Cl)c(Cl)c3)n2CCc2ccc(OC)c(OC)c2)cc1OC [Example 69, 4-[l-(3,4-Dichlorophenyl)-1-methylethyl]-3-(3,4-dimethoxyphenethyl)-2-(3,4-dimethoxyphenethylimino)-2,3-dihydrothiazole hydrobromide]	58	< 50	< 50
C=CCN=c1scc(C2(c3ccc(Cl)c(Cl)c3)CCC2)n1CC=C [Example 20, 3-Allyl-2-allylimino-4-[1-(3,4-dichlorophenyl)cyclobutyl]-2,3-dihydrothiazole hydrobromide]	105	104	91
C1=C(C2(c3ccccc3)CCCCC2)N2CCN=C2S1 [Example 72, 3-(1-Phenylcyclohexyl)-5,6-dihydroimidazo[2,1-b]thiazole hydrobromide]	70	< 50	< 50
CCCCN=c1scc(C(C)(C)c2ccc(Cl)cc2)n1CCCC [Example 62, 3-Butyl-2-butylimino-4-[1-(4-chlorophenyl)-1-methylethyl]-2,3-dihydrothiazole hydrobromide]	55	< 50	< 50
Clc1ccc(C2(c3csc(=NCCc4ccccc4)n3CCc3ccccc3)CCC2)cc1Cl [Example 24, 4-[1-(3,4-Dichlorophenyl)cyclobutyl]-3-phenethyl-2-phenethylimino-2,3-dihydrothiazole hydrobromide]	90	< 50	< 50
CSc1ccc(C2(C3=CSC4=NCCN34)CCC2)cc1 [Example 76, 3-[1-(4-Methylthiophenyl)cyclobutyl]-5,6-dihydroimidazo[2,1-b]thiazole hydrobromide]	< 50	81	< 50
CC(C)CN=c1scc(C2(c3ccc(Cl)c(Cl)c3)CCC2)n1CC(C)C [Example 19, 4-[1-(3,4-Dichlorophenyl)cyclobutyl]-3-isobutyl-2-isobutylimino-2,3-dihydrothiazole hydrobromide]	107	89	< 50
CC(C)(C1=CSC2=NCCN12)c1ccc(Cl)c(Cl)c1 [Example 11, 3-[1-(3,4-dichlorophenyl)-1-methylethyl]-5,6-dihydroimidazo[2,1-b]-thiazole hydrobromide]	102	57	< 50
CCCCN=c1scc(C2(c3ccc4ccccc4c3)CCC2)n1CCCC [Example 40, 3-Butyl-2-butylimino-4-[1-(2-naphthyl)cyclobutyl]-2,3-dihydrothiazole hydrobromide]	113	97	< 50
Fc1cccc(C2(C3=CSC4=NCCN34)CCC2)c1 [Example 75, 3-[1-(3-Fluorophenyl)cyclobutyl]-5,6-dihydroimidazo[2,1-b]thiazole hydrobromide]	< 50	53	< 50
Fc1ccc(CN=c2scc(C3(c4ccc5ccccc5c4)CCC3)n2Cc2ccc(F)cc2)cc1 [Example 45, 3-(4-Fluorobenzyl)-2-(4-fluorobenzylimino)-4-[1-(2-naphthyl)cyclobutyl]-2,3-dihydrothiazole hydrobromide]	96	59	< 50
